{
  "source": "patent US11083726B2",
  "about": "“Methods and compositions for treating vasomotor symptoms” (UNIVERSITY OF WASHINGTON THROUGH ITS CENTER FOR …, priority 2012, dated 2021)",
  "system": "LH secretion",
  "assay": "LH secretion in ovariectomized mice after i.p. injection of a PRKA (serum LH by radioimmunoassay)",
  "assay_type": "in vivo",
  "experimental": "Female mice (000664 C57BL/6J) were obtained from The Jackson Laboratory (Sacramento, Calif., USA) at 8 weeks of age. All animals were housed on a 12:12-h light-dark cycle (lights off at 1800) with food and water available ad libitum. All experiments were conducted in accordance with the National Institutes of Health (NIH) Animal Care and Use Guidelines and with approval of the Animal Care and Use Committee of the University of Washington.\nMice were ovariectomized 13 days prior to the experiment, which occurred at approximately 11 weeks of age. Mice were anesthetized with isoflurane and bilaterally ovariectomized (OVX). Briefly, the animal's ventral skin was shaved and cleaned, and small incisions were made in the skin and abdominal musculature. The gonads were identified and excised, the abdominal muscle was sutured, and the skin incision was closed with surgical clips.\nMice were injected i.p. (<500 μl) with vehicle [0.9% sterile saline (Hospira, Lake Forest, Ill., USA) with 3.6% sterile DMSO (Sigma Aldrich, Inc., St. Louis, Mo., USA), n=7] or the following doses of the PRKA, ICI204,448 hydrochloride (Tocris Bioscience, Bristol, UK), diluted in sterile saline/DMSO: 0.1 mg/kg (0.018% DMSO, n=6), 1 mg/kg (0.18% DMSO, n=4), 10 mg/kg (1.8% DMSO, n=5), or 20 mg/kg (3.6% DMSO, n=7). N.B. 1 mg/kg and 10 mg/kg groups run in different experiment/assay. […]",
  "data": [
    {"smiles": "CN(C(=O)Cc1ccc(Cl)c(Cl)c1)C(CN1CCCC1)c1cccc(OCC(=O)O)c1.Cl", "note": "(racemic) [ICI 204,448 hydrochloride, (RS)-[3-[1-[[(3,4-Dichlorophenyl)acetyl]methylamino]-2-(1-pyrrolidinyl)ethyl]phenoxy]acetic acid hydrochloride]", "values": [
      {"measurement": "LH secretion (FIG. 2)", "setting": "mice, 0.1, 1, 10, 20 mg/kg i.p., 1 mg/kg and 10 mg/kg in different experiment/assay", "value": "dose-dependent decrease"},
      {"measurement": "LH post injection", "setting": "ovariectomized mice, High Dose 20 mg/kg i.p., 20 minutes after injection, vs. Low Dose 0.1 mg/kg (P<0.01) and Vehicle (P<0.001)", "value": "significantly decreased"}
    ]}
  ]
}
